Results from the NIST ThermoML archive (doi:10.1021/acs.jced.8b00554).

Test: xn = mol fraction of the nth substance listed
Details: Liquid, Vibrating tube method

CCCCCCCC [octane] + CCCO
Details | mass density [kg/m3]
343.15 K, 15010 kPa, x2 = 0.7301 | 726.47
343.15 K, 15020 kPa, x2 = 0.4411 | 698
343.15 K, 16000 kPa, x2 = 0.2111 | 685.06
343.15 K, 16000 kPa, x2 = 0.3158 | 690.66
343.15 K, 16000 kPa, x2 = 0.4411 | 699.01
343.15 K, 16010 kPa, x2 = 0.1631 | 682.9
343.15 K, 16010 kPa, x2 = 0.7301 | 727.46
343.15 K, 16010 kPa, x2 = 0.8823 | 750.92
343.15 K, 17000 kPa, x2 = 0.8823 | 751.86
343.15 K, 17010 kPa, x2 = 0.1631 | 683.85
343.15 K, 17010 kPa, x2 = 0.2111 | 686.08
343.15 K, 17010 kPa, x2 = 0.3158 | 691.65
343.15 K, 17010 kPa, x2 = 0.4411 | 699.99
343.15 K, 17010 kPa, x2 = 0.7301 | 728.43
343.15 K, 18000 kPa, x2 = 0.1631 | 684.83
343.15 K, 18000 kPa, x2 = 0.7301 | 729.35
343.15 K, 18010 kPa, x2 = 0.3158 | 692.6
343.15 K, 18010 kPa, x2 = 0.4411 | 700.97
343.15 K, 18020 kPa, x2 = 0.2111 | 687.03
343.15 K, 18020 kPa, x2 = 0.8823 | 752.76
343.15 K, 19000 kPa, x2 = 0.1631 | 685.78
343.15 K, 19010 kPa, x2 = 0.3158 | 693.56
343.15 K, 19010 kPa, x2 = 0.8823 | 753.68
343.15 K, 19020 kPa, x2 = 0.2111 | 687.96
343.15 K, 19020 kPa, x2 = 0.4411 | 701.92
343.15 K, 19020 kPa, x2 = 0.7301 | 730.28
343.15 K, 20000 kPa, x2 = 0.7301 | 731.24
343.15 K, 20010 kPa, x2 = 0.1631 | 686.67
343.15 K, 20010 kPa, x2 = 0.2111 | 688.89
343.15 K, 20010 kPa, x2 = 0.3158 | 694.48
343.15 K, 20010 kPa, x2 = 0.4411 | 702.85
343.15 K, 20020 kPa, x2 = 0.8823 | 754.54
353.15 K, 100 kPa, x2 = 0.1631 | 654.7
353.15 K, 100 kPa, x2 = 0.2111 | 656.5
353.15 K, 100 kPa, x2 = 0.3158 | 661.43
353.15 K, 100 kPa, x2 = 0.4411 | 669.56
353.15 K, 100 kPa, x2 = 0.7301 | 697.88
353.15 K, 100 kPa, x2 = 0.8823 | 723.05
353.15 K, 1000 kPa, x2 = 0.3158 | 663.09
353.15 K, 1010 kPa, x2 = 0.1631 | 656.23
353.15 K, 1010 kPa, x2 = 0.2111 | 658.1
353.15 K, 1010 kPa, x2 = 0.4411 | 671.12
353.15 K, 1010 kPa, x2 = 0.8823 | 724.42
353.15 K, 1020 kPa, x2 = 0.7301 | 699.6
353.15 K, 2000 kPa, x2 = 0.4411 | 672.33
353.15 K, 2010 kPa, x2 = 0.2111 | 659.4
353.15 K, 2010 kPa, x2 = 0.3158 | 664.39
353.15 K, 2020 kPa, x2 = 0.1631 | 657.52
353.15 K, 2020 kPa, x2 = 0.7301 | 700.81
353.15 K, 2020 kPa, x2 = 0.8823 | 725.57
353.15 K, 3000 kPa, x2 = 0.1631 | 658.76
353.15 K, 3000 kPa, x2 = 0.7301 | 702.03
353.15 K, 3010 kPa, x2 = 0.3158 | 665.6
353.15 K, 3010 kPa, x2 = 0.4411 | 673.58
353.15 K, 3010 kPa, x2 = 0.8823 | 726.72
353.15 K, 3020 kPa, x2 = 0.2111 | 660.63
353.15 K, 4000 kPa, x2 = 0.8823 | 727.86
353.15 K, 4010 kPa, x2 = 0.2111 | 661.88
353.15 K, 4010 kPa, x2 = 0.3158 | 666.84
353.15 K, 4010 kPa, x2 = 0.4411 | 674.84
353.15 K, 4010 kPa, x2 = 0.7301 | 703.25
353.15 K, 4020 kPa, x2 = 0.1631 | 659.99
353.15 K, 5000 kPa, x2 = 0.2111 | 663.08
353.15 K, 5000 kPa, x2 = 0.4411 | 676.07
353.15 K, 5010 kPa, x2 = 0.1631 | 661.2
353.15 K, 5010 kPa, x2 = 0.3158 | 668.06
353.15 K, 5010 kPa, x2 = 0.7301 | 704.44
353.15 K, 5020 kPa, x2 = 0.8823 | 729.03
353.15 K, 6000 kPa, x2 = 0.4411 | 677.27
353.15 K, 6000 kPa, x2 = 0.7301 | 705.64
353.15 K, 6010 kPa, x2 = 0.3158 | 669.31
353.15 K, 6020 kPa, x2 = 0.1631 | 662.41
353.15 K, 6020 kPa, x2 = 0.2111 | 664.26
353.15 K, 6020 kPa, x2 = 0.8823 | 730.16
353.15 K, 7000 kPa, x2 = 0.7301 | 706.83
353.15 K, 7000 kPa, x2 = 0.8823 | 731.28
353.15 K, 7010 kPa, x2 = 0.1631 | 663.61
353.15 K, 7010 kPa, x2 = 0.2111 | 665.47
353.15 K, 7020 kPa, x2 = 0.3158 | 670.48
353.15 K, 7020 kPa, x2 = 0.4411 | 678.5
353.15 K, 8010 kPa, x2 = 0.1631 | 664.82
353.15 K, 8010 kPa, x2 = 0.3158 | 671.68
353.15 K, 8010 kPa, x2 = 0.4411 | 679.69
353.15 K, 8010 kPa, x2 = 0.7301 | 708
353.15 K, 8020 kPa, x2 = 0.2111 | 666.69
353.15 K, 8020 kPa, x2 = 0.8823 | 732.4
353.15 K, 9000 kPa, x2 = 0.1631 | 666
353.15 K, 9010 kPa, x2 = 0.2111 | 667.86
353.15 K, 9010 kPa, x2 = 0.3158 | 672.89
353.15 K, 9010 kPa, x2 = 0.4411 | 680.87
353.15 K, 9010 kPa, x2 = 0.7301 | 709.2
353.15 K, 9020 kPa, x2 = 0.8823 | 733.54
353.15 K, 10000 kPa, x2 = 0.8823 | 734.63
353.15 K, 10010 kPa, x2 = 0.1631 | 667.15
353.15 K, 10010 kPa, x2 = 0.2111 | 669.02
